{
  "source": "patent US20230338378A1",
  "about": "“Methods of Administering Myosin Inhibitors” (MYOKARDIA, INC., priority 2022, published 2023)",
  "key": {"[1]": {"tested_on": "organic anion transporters (OATs)", "test": "In vitro transporter inhibition", "type": "in vitro ADME", "conditions": "In Vitro Studies"}, "[2]": {"tested_on": "healthy subjects", "test": "Doses of up to 25 mg for up to 25 days in healthy subjects", "type": "in vivo", "conditions": "25 mg dose level for up to 25 days", "procedure": "(§1) Human experience of overdose with MAVACAMTEN is limited. MAVACAMTEN has been given as a single dose of up to 144 mg in patients with HCM. […] In healthy subjects, doses of up to 25 mg have been administered for up to 25 days, with 3 of 8 participants treated at the 25 mg dose level experiencing 20% or greater reductions in LVEF. An infant death was reported after accidental ingestion of three 15 mg capsules."}, "[3]": {"molecular_target": "P-gp (Homo sapiens, UniProt P08183)", "sequence (P08183 whole entry)": "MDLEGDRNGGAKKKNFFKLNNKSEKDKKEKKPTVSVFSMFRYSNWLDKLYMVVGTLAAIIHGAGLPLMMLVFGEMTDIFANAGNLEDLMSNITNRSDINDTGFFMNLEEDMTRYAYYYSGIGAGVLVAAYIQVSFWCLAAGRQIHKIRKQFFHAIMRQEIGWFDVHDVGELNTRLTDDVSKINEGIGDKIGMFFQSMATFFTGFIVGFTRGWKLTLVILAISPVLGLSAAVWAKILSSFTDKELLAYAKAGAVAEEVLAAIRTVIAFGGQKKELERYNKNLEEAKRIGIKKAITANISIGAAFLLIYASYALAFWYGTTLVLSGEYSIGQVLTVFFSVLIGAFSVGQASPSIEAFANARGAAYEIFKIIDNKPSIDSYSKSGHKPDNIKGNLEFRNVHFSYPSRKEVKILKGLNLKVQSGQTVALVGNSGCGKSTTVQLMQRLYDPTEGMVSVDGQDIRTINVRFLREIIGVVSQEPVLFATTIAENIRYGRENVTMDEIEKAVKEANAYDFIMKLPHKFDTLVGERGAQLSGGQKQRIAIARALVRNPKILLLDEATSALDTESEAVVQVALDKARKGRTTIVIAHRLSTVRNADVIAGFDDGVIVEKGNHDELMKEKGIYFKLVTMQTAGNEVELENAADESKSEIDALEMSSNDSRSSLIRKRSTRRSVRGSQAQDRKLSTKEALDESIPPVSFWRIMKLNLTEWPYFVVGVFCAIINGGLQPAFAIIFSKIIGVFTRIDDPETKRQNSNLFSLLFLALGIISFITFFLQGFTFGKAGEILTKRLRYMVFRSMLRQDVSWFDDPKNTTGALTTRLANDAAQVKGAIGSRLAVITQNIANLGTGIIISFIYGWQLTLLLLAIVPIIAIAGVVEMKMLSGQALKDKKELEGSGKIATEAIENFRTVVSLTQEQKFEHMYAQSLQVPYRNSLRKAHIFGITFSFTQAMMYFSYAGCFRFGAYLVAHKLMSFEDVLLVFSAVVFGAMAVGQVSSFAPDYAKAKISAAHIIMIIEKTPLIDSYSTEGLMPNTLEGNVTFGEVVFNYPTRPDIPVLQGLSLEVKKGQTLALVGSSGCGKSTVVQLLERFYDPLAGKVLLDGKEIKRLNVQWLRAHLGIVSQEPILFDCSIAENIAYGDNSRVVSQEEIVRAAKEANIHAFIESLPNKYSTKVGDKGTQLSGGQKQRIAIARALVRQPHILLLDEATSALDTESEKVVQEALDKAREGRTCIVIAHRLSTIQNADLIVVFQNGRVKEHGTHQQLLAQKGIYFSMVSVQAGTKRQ", "test": "In vitro transporter inhibition", "type": "in vitro ADME", "conditions": "In Vitro Studies"}, "[4]": {"tested_on": "rasH2 transgenic mouse", "test": "6-month rasH2 transgenic mouse carcinogenicity study", "type": "in vivo"}, "[5]": {"tested_on": "male or female rats", "test": "Reproductive toxicity studies (mating and fertility)", "type": "in vivo, rat"}, "[6]": {"tested_on": "CYP2C19", "test": "Pharmacogenomics: CYP2C19 poor vs normal metabolizers, single 15 mg dose", "type": "in vivo, human", "conditions": "for half-life: human, in vivo, 15 mg", "description": "Mean half-life is prolonged in CYP2C19 PMs compared to NMs (23 days vs. 6 to 9 days, respectively).\nPolymorphic CYP2C19 is the main enzyme involved in the metabolism of MAVACAMTEN. An individual carrying two normal function alleles is a NM (e.g., *1/*1). An individual carrying two no function alleles is a PM (e.g., *2/*2, *2/*3, *3/*3)."}, "[7]": {"tested_on": "CYP2B6", "test": "In vitro CYP induction", "type": "in vitro ADME", "conditions": "In Vitro Studies"}, "[8]": {"molecular_target": "CYP2C9 (Homo sapiens, UniProt P11712)", "sequence (P11712 whole entry)": "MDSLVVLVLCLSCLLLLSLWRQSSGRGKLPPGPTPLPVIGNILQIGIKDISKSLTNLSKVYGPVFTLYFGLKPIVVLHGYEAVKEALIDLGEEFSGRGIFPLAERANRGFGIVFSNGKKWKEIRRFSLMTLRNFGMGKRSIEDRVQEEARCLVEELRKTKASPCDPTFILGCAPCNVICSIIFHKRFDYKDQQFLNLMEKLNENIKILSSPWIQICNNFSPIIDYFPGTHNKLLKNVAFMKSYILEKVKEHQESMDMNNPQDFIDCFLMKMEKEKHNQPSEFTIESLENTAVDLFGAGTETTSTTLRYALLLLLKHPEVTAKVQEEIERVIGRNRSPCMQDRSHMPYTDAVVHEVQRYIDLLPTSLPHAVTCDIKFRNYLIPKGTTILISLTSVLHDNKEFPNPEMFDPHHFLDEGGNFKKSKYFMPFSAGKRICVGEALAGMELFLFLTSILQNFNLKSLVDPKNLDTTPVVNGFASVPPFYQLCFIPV", "test": "Metabolism through CYP enzymes"}, "[9]": {"molecular_target": "CYP2B6 (Homo sapiens, UniProt P20813)", "sequence (P20813 whole entry)": "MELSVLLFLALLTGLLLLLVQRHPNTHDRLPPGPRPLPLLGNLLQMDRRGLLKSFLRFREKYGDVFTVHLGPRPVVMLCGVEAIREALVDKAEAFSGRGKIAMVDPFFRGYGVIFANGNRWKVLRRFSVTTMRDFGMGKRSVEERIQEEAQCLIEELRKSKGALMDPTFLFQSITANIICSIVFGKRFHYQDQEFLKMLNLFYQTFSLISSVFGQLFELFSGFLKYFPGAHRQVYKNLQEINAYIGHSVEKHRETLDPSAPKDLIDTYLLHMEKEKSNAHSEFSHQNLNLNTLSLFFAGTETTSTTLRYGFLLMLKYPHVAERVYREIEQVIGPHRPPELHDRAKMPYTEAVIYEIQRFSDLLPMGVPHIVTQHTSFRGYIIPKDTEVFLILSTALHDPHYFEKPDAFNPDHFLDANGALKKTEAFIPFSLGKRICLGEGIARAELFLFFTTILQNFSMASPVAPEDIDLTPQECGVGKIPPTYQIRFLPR", "test": "In vitro CYP inhibition", "type": "in vitro ADME", "conditions": "In Vitro Studies"}, "[10]": {"test": "Clinical pharmacokinetics of mavacamten", "type": "in vivo, human", "conditions": "for half-life: plasma, read-out: terminal half-life (converted)"}, "[11]": {"test": "Human experience of overdose", "type": "in vivo", "procedure": "as §1"}, "[12]": {"molecular_target": "MATE2-K (Homo sapiens, UniProt Q86VL8)", "sequence (Q86VL8 1-566 isoform Q86VL8-3)": "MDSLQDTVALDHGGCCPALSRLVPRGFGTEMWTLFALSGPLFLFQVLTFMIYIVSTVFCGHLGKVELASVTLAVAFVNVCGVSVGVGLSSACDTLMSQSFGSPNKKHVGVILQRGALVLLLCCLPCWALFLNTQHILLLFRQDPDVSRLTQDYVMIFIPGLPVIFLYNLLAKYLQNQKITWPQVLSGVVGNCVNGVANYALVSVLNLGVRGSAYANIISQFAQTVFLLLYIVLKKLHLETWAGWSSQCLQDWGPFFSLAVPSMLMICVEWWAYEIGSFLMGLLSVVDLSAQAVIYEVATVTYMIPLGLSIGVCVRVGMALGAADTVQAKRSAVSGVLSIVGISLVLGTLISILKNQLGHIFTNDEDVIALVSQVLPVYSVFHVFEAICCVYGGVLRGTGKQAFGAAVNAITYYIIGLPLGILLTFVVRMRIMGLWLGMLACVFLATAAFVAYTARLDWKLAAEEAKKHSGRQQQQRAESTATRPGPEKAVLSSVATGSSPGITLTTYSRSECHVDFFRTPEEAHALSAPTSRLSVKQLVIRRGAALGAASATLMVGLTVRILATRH", "test": "In vitro transporter inhibition", "type": "in vitro ADME", "conditions": "In Vitro Studies"}, "[13]": {"molecular_target": "CYP2C19 (Homo sapiens, UniProt P33261)", "sequence (P33261 whole entry)": "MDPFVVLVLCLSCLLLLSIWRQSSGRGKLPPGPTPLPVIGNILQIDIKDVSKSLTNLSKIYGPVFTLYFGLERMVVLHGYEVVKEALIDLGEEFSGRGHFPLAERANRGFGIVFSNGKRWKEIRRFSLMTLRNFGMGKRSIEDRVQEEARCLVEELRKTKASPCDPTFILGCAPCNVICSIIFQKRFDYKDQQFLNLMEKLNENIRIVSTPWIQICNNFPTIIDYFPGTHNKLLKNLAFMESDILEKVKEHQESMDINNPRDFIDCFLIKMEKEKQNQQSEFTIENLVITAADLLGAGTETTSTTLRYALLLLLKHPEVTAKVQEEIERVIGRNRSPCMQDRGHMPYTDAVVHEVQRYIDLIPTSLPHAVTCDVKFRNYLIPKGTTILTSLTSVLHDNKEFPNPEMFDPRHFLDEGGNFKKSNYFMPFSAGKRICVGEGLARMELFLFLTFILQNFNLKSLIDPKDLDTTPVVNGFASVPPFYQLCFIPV", "test": "In vitro CYP inhibition", "type": "in vitro ADME", "conditions": "In Vitro Studies; clinically relevant concentrations"}, "[14]": {"tested_on": "organic cation transporters (OCTs)", "test": "In vitro transporter inhibition", "type": "in vitro ADME", "conditions": "In Vitro Studies"}, "[15]": {"conditions": "CYP2C19 PMs compared to NMs, single dose of 15 mg"}},
  "note": "Read-outs that look alike come from different tables or passages of the source.",
  "data": [
    {"molecule": "CC(C)n1c(=O)cc(N[C@@H](C)c2ccccc2)[nH]c1=O", "note": "[mavacamten, (S)-3-Isopropyl-6-((1-phenylethyl)amino)pyrimidine-2,4(1H,3H)-dione]", "values": [
      {"measurement": "inhibition of OATs", "setting": "[1]", "value": "does not inhibit"},
      {"measurement": "participants experiencing 20% or greater reductions in LVEF", "setting": "[2]", "value": "3 of 8"},
      {"measurement": "inhibition of P-gp", "setting": "[3]", "value": "does not inhibit"},
      {"measurement": "carcinogenicity", "setting": "[4]; 6-month rasH2 transgenic mouse, up to 2.0 mg/kg/day in males and 3.0 mg/kg/day in females", "value": "no evidence of carcinogenicity"},
      {"measurement": "exposure (AUC) compared to AUC exposures in humans at the MRHD", "setting": "[4]; females, 3.0 mg/kg/day", "value": 3, "unit": "fold"},
      {"measurement": "exposure (AUC) compared to AUC exposures in humans at the MRHD", "setting": "[4]; males, 2.0 mg/kg/day", "value": 1.8, "unit": "fold"},
      {"measurement": "effects on the viability and fertility of offspring", "setting": "[5]; dams dosed up to 1.5 mg/kg/day", "value": "no evidence of effects"},
      {"measurement": "effects on mating and fertility", "setting": "[5]; male or female rats, doses up to 1.2 mg/kg/day", "value": "no evidence of effects"},
      {"measurement": "Plasma exposure (AUC) at the highest dose tested", "setting": "[5]; rats", "value": "the same as in humans at the MRHD"},
      {"measurement": "AUCinf increase", "setting": "[6]; [15]", "value": 241, "unit": "%"},
      {"measurement": "Cmax increase", "setting": "[6]; [15]", "value": 47, "unit": "%"},
      {"measurement": "half-life", "setting": "[6]; CYP2C19 NMs", "value": "144 to 216", "unit": "h"},
      {"measurement": "half-life", "setting": "[6]; CYP2C19 PMs", "value": 552, "unit": "h"},
      {"measurement": "induction of CYP2B6", "setting": "[7]", "value": "inducer"},
      {"measurement": "metabolized through CYP2C9", "setting": "[8]", "value": 8, "unit": "%"},
      {"measurement": "inhibition of CYP2B6", "setting": "[9]", "value": "does not inhibit"},
      {"measurement": "accumulation ratio for AUC", "setting": "[10]; CYP2C19 NMs", "value": "about 7 fold"},
      {"measurement": "accumulation ratio for Cmax", "setting": "[10]; CYP2C19 NMs", "value": "about 2 fold"},
      {"measurement": "pharmacokinetics with a high fat meal", "setting": "[10]; Effect of Food", "value": "No clinically significant differences"},
      {"measurement": "pharmacokinetics by age (18-82 years), sex, race, ethnicity, or mild to moderate renal impairment", "setting": "[10]; Specific Populations", "value": "No clinically significant differences"},
      {"measurement": "Tmax", "setting": "[10]; human, in vivo, oral, read-out: time to maximum concentration (Tmax)", "value": 1, "unit": "h"},
      {"measurement": "bioavailability", "setting": "[10]; human, in vivo, po, read-out: estimated oral bioavailability", "value": "≥ 85", "unit": "%"},
      {"measurement": "half-life", "setting": "[10]; human, oral, CYP2C19 normal metabolizers (NMs)", "value": "144 to 216", "unit": "h"},
      {"measurement": "half-life", "setting": "[10]; human, oral, CYP2C19 poor metabolizers (PMs)", "value": 552, "unit": "h"},
      {"measurement": "exposure vs dose", "setting": "[10]; multiple once-daily doses of 1 mg to 15 mg", "value": "increases generally dose proportionally"},
      {"measurement": "higher exposures in patients with HCM compared to healthy subjects", "setting": "[10]; same dose level", "value": 170, "unit": "%"},
      {"measurement": "peak-to-trough plasma concentration ratio", "setting": "[10]; steady-state, once daily dosing", "value": "approximately 1.5"},
      {"measurement": "events after overdose", "setting": "[11]; one subject, single dose of 144 mg, subject recovered", "value": "serious adverse events including vasovagal reaction, hypotension, and asystole"},
      {"measurement": "outcome after accidental ingestion", "setting": "[11]; three 15 mg capsules", "value": "infant death"},
      {"measurement": "inhibition of MATE2-K", "setting": "[12]", "value": "does not inhibit"},
      {"measurement": "inhibition of CYP2C19", "setting": "[13]", "value": "not an inhibitor"},
      {"measurement": "inhibition of OCTs", "setting": "[14]", "value": "does not inhibit"}
    ]}
  ]
}
